{
  "source": "PubChem BioAssay AID463199",
  "about": "(Broad Institute, 2010)",
  "note": "The source made the active and inactive calls.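 Rule for the calls: active = AC50, the dose giving half-maximal effect, exceeds a fixed cutoff for a compound that rescues yeast growth under heat; inactive = the rest, inconclusive results apart.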",
  "data": [
    {"tested_on": "S. cerevisiae Burl-1 ts mutant growth, BacTiter-Glo, 38.5C 24 h", "assay": "growth induction of Burl-1 ts yeast mutant, dose response, counter-screen for SUMOylation pathway inhibitor project, whole organism, S. cerevisiae, luminescence (AID 463199)", "values": [
      {"compound": "COc1nc(OC)nc(N2CCC(C(=O)NC3CCCCCC3)CC2)n1", "AC50": "> 42 µM (inactive)"},
      {"compound": "O=C(/C=C/c1ccc(Cl)cc1Cl)Nc1cccc(S(=O)(=O)NC2=NCCCCC2)c1", "AC50": "> 42 µM (inactive)"},
      {"compound": "COc1ccc(/C=C(/C#N)S(=O)(=O)c2ccc(C)cc2)cc1", "AC50": "> 21 µM (inactive)"},
      {"compound": "CCOP(=O)(Cc1cc(C(=O)CC)c(C)o1)OCC", "AC50": "> 42 µM (inactive)"},
      {"compound": "CN(C)c1ccc(/C=C/c2cccc[n+]2[O-])cc1", "AC50": "> 42 µM (inactive)"},
      {"compound": "CCOC(=O)N1CCN(S(=O)(=O)c2ccc(Br)s2)CC1", "AC50": "> 42 µM (inactive)"},
      {"compound": "CC(=O)c1ccc(C(=O)N2CCCC(N3CCN(c4ccc(F)cc4)CC3)C2)s1", "note": "(stereo not given)", "AC50": "> 42 µM (inactive)"},
      {"compound": "O=C(NCc1ccccn1)C1CC(c2ccc(Cl)c(Cl)c2)=NO1", "note": "(stereo not given)", "AC50": "> 42 µM (inactive)"},
      {"compound": "Cc1ccc(NC(=O)CC2CS(=O)(=O)CC2CC(=O)Nc2ccc(C)c(C)c2)cc1C", "note": "(stereo not given)", "AC50": "19.2 µM"},
      {"compound": "CO/N=C/c1ccc(Oc2ccc(C)cc2)nc1", "AC50": "> 42 µM (inactive)"},
      {"compound": "COc1cc(OC)c(C(=O)N2CCN(c3ccccn3)CC2)cc1OC", "AC50": "> 42 µM (inactive)"},
      {"compound": "Fc1cccc(NC(=S)N2CCn3cccc3C2c2cccnc2)c1", "note": "(stereo not given)", "AC50": "> 42 µM (inactive)"},
      {"compound": "O=C(Nc1ccc2c(c1)CCCN2C(=O)c1cccs1)c1cccc(F)c1", "AC50": "> 42 µM (inactive)"},
      {"compound": "CC(C)(C)NC(=O)CN(C(=O)CCC(=O)Nc1nccs1)c1ccc2c(c1)OCCO2", "AC50": "> 42 µM (inactive)"},
      {"compound": "COC(=O)[C@@]12CCCCN1[C@H](c1ccc(-c3cccc(Cl)c3)c(OC)c1)[C@H]1C(=O)N(C)C(=O)[C@H]12", "AC50": "> 42 µM (inactive)"},
      {"compound": "COc1ccc(N=Cc2c(O)n(C)c(=O)[nH]c2=O)cc1", "AC50": "> 42 µM (inactive)"},
      {"compound": "Cc1cccc(N2CN=c3s/c(=C\\c4ccccn4)c(=O)n3C2)c1", "AC50": "> 42 µM (inactive)"},
      {"compound": "COc1ccc(-c2nnc(SCC(=O)N3CCCCC3)o2)cc1", "AC50": "> 42 µM (inactive)"},
      {"compound": "CC(=O)c1ccc(Nc2cc(C)nc3ccccc23)cc1", "AC50": "> 42 µM (inactive)"},
      {"compound": "COc1cccc(C2C(C(C)=O)=C(O)C(=O)N2CCc2c[nH]c3ccccc23)c1", "note": "(stereo not given)", "AC50": "> 42 µM (inactive)"},
      {"compound": "Cc1cc(C)c(S(=O)(=O)NCC(c2cccnc2)N2CCN(Cc3ccccc3)CC2)c(C)c1", "note": "(stereo not given)", "AC50": "> 42 µM (inactive)"},
      {"compound": "Cc1ccccc1NC(=O)c1ccccc1NC(=O)c1ccco1", "AC50": "> 42 µM (inactive)"},
      {"compound": "Cc1cc(C)cc(-n2ncc3c2CCCC3NC(=O)c2cc(C)[nH]n2)c1", "note": "(stereo not given)", "AC50": "> 42 µM (inactive)"},
      {"compound": "Cc1ccccc1C(=O)NNC(=O)/C=C\\C(=O)O", "AC50": "> 42 µM (inactive)"},
      {"compound": "CCOC(=O)c1oc2ccccc2c1COC(=O)CNC(=O)c1cccc(C)c1", "AC50": "> 42 µM (inactive)"},
      {"compound": "CCCCCC(=O)Nc1ccc(-c2csc(N)n2)cc1", "AC50": "> 42 µM (inactive)"},
      {"compound": "Cc1ccc(S(=O)(=O)NCC(=O)OCC(=O)c2ccc(Br)s2)cc1", "AC50": "> 42 µM (inactive)"},
      {"compound": "CCN1C(=NCCCCO)N[C@@H](c2cccc(C(F)(F)F)c2)C(C(=O)OC)=C1C", "AC50": "> 42 µM (inactive)"},
      {"compound": "Cc1cc(C)n(CCCNC(=O)CN(C)S(=O)(=O)c2ccc(Cl)cc2)n1", "AC50": "> 42 µM (inactive)"},
      {"compound": "CSCC[C@H](NC(=O)CC(C)(C)C)c1nc2ccccc2[nH]1", "AC50": "> 42 µM (inactive)"},
      {"compound": "CCOC(=O)C1C(c2ccc(C)o2)NC(=O)NC1(O)C(F)(F)F", "note": "(stereo not given)", "AC50": "> 42 µM (inactive)"},
      {"compound": "CCOc1ccc(C(=O)NNC2CC(=O)N(CCc3ccccc3)C2=O)cc1OC", "note": "(stereo not given)", "AC50": "> 42 µM (inactive)"},
      {"compound": "Nc1nc(CSc2nnnn2-c2ccc(Cl)cc2)nc(N2CCOCC2)n1", "AC50": "> 42 µM (inactive)"},
      {"compound": "O=C(COc1cccc2cccnc12)N1CCc2ccccc21", "AC50": "> 42 µM (inactive)"},
      {"compound": "CN(CCOc1ccc(-c2ccn(S(=O)(=O)c3cccc4ccccc34)n2)cc1)c1ccccn1", "AC50": "> 42 µM (inactive)"},
      {"compound": "Cc1ccc2c(c1)C(=O)N1[C@H]3c4ccccc4OC[C@@H]3[C@H](c3ccccc3)[C@]1(C)C(=O)N2", "AC50": "> 42 µM (inactive)"},
      {"compound": "Cc1cccc(/C=N/NC(=O)Cc2cccs2)c1", "AC50": "> 42 µM (inactive)"},
      {"compound": "CC(C)(C)c1ccc(CN(Cc2ccccc2)C(c2ccccn2)c2nnnn2C(C)(C)C)cc1", "note": "(stereo not given)", "AC50": "> 42 µM (inactive)"},
      {"compound": "Cc1ccc(C)c(NC(NC(=O)c2ccccn2)C(Cl)(Cl)Cl)c1", "note": "(stereo not given)", "AC50": "> 42 µM (inactive)"},
      {"compound": "CCCc1nn2c(=O)cc(CSCC(=O)Nc3ccc(OC)cc3)nc2s1", "AC50": "> 42 µM (inactive)"},
      {"compound": "Cc1cccc(N(C(=O)c2ccc(CN3CCOCC3)o2)C(C(=O)NC2CCCCC2)c2ccc(F)cc2)c1", "note": "(stereo not given)", "AC50": "> 42 µM (inactive)"},
      {"compound": "CCOC(=O)C1CCN(CC(O)COc2ccc(C(C)(C)C)cc2)CC1", "note": "(stereo not given)", "AC50": "> 42 µM (inactive)"},
      {"compound": "CC(C)(C)C(=O)Nc1ccc(C(=O)NCc2cccnc2)cc1", "AC50": "> 42 µM (inactive)"},
      {"compound": "COCCn1c(SCC(=O)N2CCCC2)nnc1-c1ccoc1C", "AC50": "> 42 µM (inactive)"},
      {"compound": "O=C(/C=C/N1CCOCC1)c1coc2ccccc12", "AC50": "> 42 µM (inactive)"},
      {"compound": "O=C(CCc1ccccc1)NNC(=O)c1ccc(Br)cc1", "AC50": "> 42 µM (inactive)"},
      {"compound": "COc1ccc(N2C(=O)CCC(C(=O)NCc3cccnc3)C2c2ccc(OC)c(OC)c2)cc1", "note": "(stereo not given)", "AC50": "> 42 µM (inactive)"},
      {"compound": "N=c1c[n+](C2CCCCC2)[n-]o1", "AC50": "> 42 µM (inactive)"},
      {"compound": "O=C(Nc1nnc(COc2ccc(F)cc2)s1)c1cccs1", "AC50": "> 42 µM (inactive)"},
      {"compound": "N/C(=N\\N=C\\c1ccc(O)cc1)c1nonc1N", "AC50": "> 42 µM (inactive)"},
      {"compound": "Cc1ccc(-c2nnc(SCC#N)n2N)cc1", "AC50": "> 42 µM (inactive)"},
      {"compound": "O=S(=O)(Nc1ccc(-c2nc3cccnc3s2)cc1)c1cc(F)ccc1F", "AC50": "> 42 µM (inactive)"},
      {"compound": "CCCCn1c(N)c(N(CCOC)C(=O)c2ccc(Cl)c(S(=O)(=O)N3CCCCC3)c2)c(=O)[nH]c1=O", "AC50": "> 42 µM (inactive)"},
      {"compound": "O=C(COC(=O)CNC(=O)c1ccc(Cl)cc1)Nc1ncc(C(F)(F)F)cc1Cl", "AC50": "> 42 µM (inactive)"},
      {"compound": "Cc1cccc(NC(=O)CCc2ccccc2)c1", "AC50": "> 42 µM (inactive)"},
      {"compound": "Cc1ccn2cc(-c3cnoc3C)nc2c1", "AC50": "> 42 µM (inactive)"},
      {"compound": "COc1ccc(C2=NN(C(=S)Nc3ccccc3)C(c3ccccc3)C2)cc1", "note": "(stereo not given)", "AC50": "> 42 µM (inactive)"},
      {"compound": "COc1cc2c(=O)n(-c3ccc(C)cc3)c(=O)n(CC(=O)c3ccc4c(c3)OCO4)c2cc1OC", "AC50": "> 42 µM (inactive)"},
      {"compound": "Cc1csc(=O)n1CC(=O)OCC(=O)Nc1cc([N+](=O)[O-])ccc1Cl", "AC50": "> 42 µM (inactive)"},
      {"compound": "Clc1cc(Br)ccc1OCCOCCN1CCOCC1", "AC50": "> 42 µM (inactive)"},
      {"compound": "COc1ccc2nc(SCC(=O)N(C)CC(=O)Nc3ccc(F)cc3)[nH]c2c1", "AC50": "> 42 µM (inactive)"},
      {"compound": "COc1ccc2c(C(=O)CN3CC(C)OC(C)C3)c[nH]c2c1", "note": "(stereo not given)", "AC50": "> 42 µM (inactive)"},
      {"compound": "Cc1ccc(/C=C2\\SC(N3CCCC3)=NC2=O)cc1", "AC50": "> 42 µM (inactive)"},
      {"compound": "Cc1ccc2nc(NC(=O)C3CCN(S(=O)(=O)c4cccnc4)CC3)sc2c1", "AC50": "> 42 µM (inactive)"},
      {"compound": "O=C(N/N=C/c1cccc([N+](=O)[O-])c1)C1COc2ccccc2O1", "note": "(stereo not given)", "AC50": "> 42 µM (inactive)"},
      {"compound": "N=c1n(CCCOc2ccc(Br)cc2)c2ccccc2n1CC(N)=O", "AC50": "> 42 µM (inactive)"},
      {"compound": "Oc1c(Cl)cc(Cl)cc1/C=N/c1nc(-c2ccc(Cl)cc2)cs1", "AC50": "> 42 µM (inactive)"},
      {"compound": "COc1ccc(S(=O)(=O)Nc2ccc(NC(C)=O)cc2)cc1OC", "AC50": "> 42 µM (inactive)"},
      {"compound": "S=C(c1ccc(N2CCOCC2)cc1)N1CCCCC1", "AC50": "> 42 µM (inactive)"},
      {"compound": "Cc1ccc(S(=O)(=O)CCC(=O)OCC(=O)N(C)C2CCS(=O)(=O)C2)cc1", "note": "(stereo not given)", "AC50": "> 42 µM (inactive)"}
    ]}
  ]
}
